{
  "source": "patent US20220184172A1",
  "about": "“AMPK/CASPASE-6 AXIS CONTROLS LIVER DAMAGE IN NONALCOHOLIC STEATOHEPATITIS” (The Regents of the University of California, priority 2019, published 2022)",
  "test_system": "CD-HFD-fed Flox and LAKO mice",
  "assay": "A-769662 in CD-HFD-fed Flox and LAKO mice",
  "type": "in vivo",
  "settings": "25 mg/kg i.p. daily for 2 weeks",
  "description": "FIGS. 13A-13I. A-769662 improves liver damage through AMPK activation in hepatocytes in NASH. C57BL/6J mice were fed with CD-HFD for 8 weeks. After 6 weeks of CD-HFD feeding, mice were intraperitoneally injected with 25 mg/kg A-769662 or vehicle daily for 2 weeks along with continuous CD-HFD feeding. FIG. 13A. Schematic diagram of experimental design. FIG. 13B-13C. Body weight (FIG. 13B) and liver weight (FIG. 13C) of indicated mice. n=7. FIG. 13D. Measurement of liver triglyceride (TG) of indicated mice. n=7. FIG. 13E. Quantification of the numbers of TUNEL-positive nuclei per field in liver sections shown in (FIG. 10B (W6), 10A). n=5-7 *, P<0.05, Student's unpaired t test. FIG. 13F-13H. Flox and LAKO mice were fed with CD-HPD for 8 weeks. After 6 weeks of CD-HFD feeding, mice were intraperitoneally injected with 25 mg/kg A-769662 or vehicle daily for 2 weeks along with continuous CD-HFD feeding. FIG. 13F. Paraffin-embedded liver sections of indicated mice were stained with TUNEL and DAPI as indicated therein; in the merged image sections, the different stains correspond to the grayscale shades as indicated in the single stained images to the left. Scale bar=50 μm. FIG. 13G. FIG. 13H. Serum ALT of indicated mice. n=4-5. *, P<0.05, two-way ANOVA. FIG. 13I. Expression of Adgre1 and Ccl2 in the liver of indicated mice. n=7. Data are shown as mean±SEM. *, P<0.05, Student's unpaired t test.\nFIGS. 15A-15F. AMPK phosphorylates caspase-6 and inhibits its cleavage. FIG. 15A. Caspase-6 activity was measure in the lysates from isolated primary hepatocytes treated with vehicle or 250 μM BSA-conjugated palmitic acid (PA) or 50 ng/ml TNFα for 2 hrs. Data are shown as mean±SD. *, P<0.05, Student's unpaired t test. FIG. 15B. HepG2 cells were pretreated with 40 μM A-769662 for 1 hr, and then treated with 30 μg/ml cycloheximide (CHX) and 50 ng/ml TNFα for 2 hrs. Cell lysates were subject to immunoblot (IB) analysis. FIG. 15C. […] Quantification of IB analysis in FIG. 15D. n=3. *, P<0.05, two-way ANOVA. […] Quantification of IB analysis in FIG. 5K. n=3. […]",
  "data": [
    {"compound": "N#Cc1c(O)c2c(-c3ccc(-c4ccccc4O)cc3)csc2[nH]c1=O", "note": "[A-769662]", "values": [
      {"measurement": "procaspase-6 cleavage (liver lysates)", "setting": "Flox mice", "value": "decreased"},
      {"measurement": "procaspase-6 phosphorylation (liver lysates)", "setting": "Flox mice", "value": "significantly increased"},
      {"measurement": "number of apoptotic cells (TUNEL)", "setting": "LAKO mice", "value": "did not decrease"}
    ]}
  ]
}
